From publication PMC6516043, “Functional Analysis of the Chemosensory Protein GmolCSP8 From the Oriental Fruit Moth, Grapholita molesta (Busck) (Lepidoptera: Tortricidae)” (Frontiers in Physiology, 2019)
Where two headings read alike, the source gives them in different places.

How the values were obtained:
rGmolCSP8 = rGmolCSP8 (Grapholita molesta, UniProt A0A0M4FML8); test: Fluorescence competitive binding assay (1-NPN displacement), wild-type; details: for binding to rGmolCSP8 (in words): wild-type rGmolCSP8, pH 7.4
Procedure: The fluorescence spectra were recorded using a fluorescence spectrophotometer (F-4500, Hitachi, Tokyo, Japan) in a 1 cm light path fluorimeter quartz cuvette with 10 nm slits for excitation and 20 nm slits for emission. […] The fluorescent probe N-phenyl-1-naphthylamine (1-NPN) and all putative ligands used in binding assays were dissolved in methanol (HPLC purity grade) to obtain a 1 mM stock solution. The rGmolCSP8 protein was diluted to in 20 mM Tris–HCl to obtain a 2 μM solution, pH 7.4. […] The fluorescent probe was excited at 337 nm and emission spectra were recorded from 370 to 550 nm. […] Binding data were obtained from three replicates assays for each concentration of each tested ligand.

GmolCSP8-L80A = GmolCSP8-L80A (Grapholita molesta, UniProt A0A0M4FML8, L95A); test: biochemical; format: binding
Procedure: (§1) To determine whether GmolCSP8 is involved in odorant binding, fluorescence competitive binding assays were performed ([Zhong et al., 2012]). The fluorescence spectra were recorded using a fluorescence spectrophotometer (F-4500, Hitachi, Tokyo, Japan) in a 1 cm light path fluorimeter quartz cuvette with 10 nm slits for excitation and 20 nm slits for emission. The selected chemicals are listed in Table 2, and included four sex pheromone components and 34 volatiles from different host plants (peach and pear trees) of G. molesta based on previous investigations ([Natale et al., 2004]; [Lu et al., 2012]; [Najar-Rodriguez et al., 2013b]). The fluorescent probe N-phenyl-1-naphthylamine (1-NPN) and all putative ligands used in binding assays were dissolved in methanol (HPLC purity grade) to obtain a 1 mM stock solution. The rGmolCSP8 protein was diluted to in 20 mM Tris–HCl to obtain a 2 μM solution, pH 7.4. To measure the binding affinity of 1-NPN for GmolCSP8, a 2 μM solution of protein was titrated with aliquots of 1 mM 1-NPN prepared to final concentrations ranging from 1 to 22 μM. The fluorescent probe was excited at 337 nm and emission spectra were recorded from 370 to 550 nm. […] Binding data were obtained from three replicates assays for each concentration of each tested ligand. Dissociation constants (Kd) of protein to 1-NPN were calculated by non-linear regression, using GraphPad Prism 4.00 software (GraphPad Software Inc.). The inhibition constants (Ki) of the competitors were determined using the corresponding IC50 values (concentration of competitor that reduced the initial fluorescence intensity by half) based on the following equation: Ki = [IC50]/(1+[1-NPN]/K1-NPN), where [1-NPN] is the free concentration of 1-NPN and K1-NPN is the dissociation constant of the complex GmolCSP8/1-NPN.
(§2) To verify the four predicted key amino acid sites of GmolCSP8 binding for 1-hexanol, recombinant plasmids for four CSP8 mutants were obtained via site-directed mutagenesis experiments. Specific primers introducing mutation sites of the four key amino acid CSP8 plasmids (GmolCSP8-T27A, GmolCSP8-L30A, GmolCSP8-V40A, and GmolCSP8-L80A) were designed and are listed in Table 1. The four mutants were mutated by using the TaKaRa MutanBEST Kit (TaKaRa, Shiga, Japan) with the pMD®19-T/GmolCSP8 plasmid DNA as template. All plasmids containing mutations were validated by sequencing with five randomly selected single colonies. pMD®19-T plasmids including four CSP8 mutants were digested with Bam HI and Hind III restriction enzymes. Then, the target sequences were ligated into the expression vector pET28a (+) and transformed into BL21 (DE3) competent cells for expression. After sequencing verification, the corresponding rGmolCSP8 mutant proteins were induced and purified, and the binding affinities to 1-hexanol and its analogs were verified via ligand-binding assays according to the method described above.

GmolCSP8-T27A = GmolCSP8-T27A (Grapholita molesta, UniProt A0A0M4FML8, T42A); test: biochemical; format: binding; details: for fold decrease in binding vs wild-type: mutant T27A compared with wild-type rGmolCSP8
Procedure: as §1, §2

GmolCSP8-V40A = GmolCSP8-V40A (Grapholita molesta, UniProt A0A0M4FML8, V55A); test: biochemical; format: binding
Procedure: as §1, §2

GmolCSP8-L30A = GmolCSP8-L30A (Grapholita molesta, UniProt A0A0M4FML8, L45A); test: biochemical; format: binding
Procedure: as §1, §2

[1] = 2 μM rGmolCSP8 and 2 μM 1-NPN, 20 mM Tris-HCl pH 7.4, read-out: IC50
[2] = 2 μM rGmolCSP8 and 2 μM 1-NPN, pH 7.4, calculated from IC50, read-out: Ki
[3] = mutant L30A compared with wild-type
[4] = read-out: Ki (μM) L30A; mutant L30A; – = lost ability to bind

Sequence of rGmolCSP8 (A0A0M4FML8 entry or part of it): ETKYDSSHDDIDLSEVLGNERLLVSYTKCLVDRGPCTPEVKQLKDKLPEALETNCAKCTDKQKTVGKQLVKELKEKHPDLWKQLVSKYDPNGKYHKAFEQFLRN
Sequence of GmolCSP8-V40A (A0A0M4FML8 entry or part of it V55A): as the sequence (A0A0M4FML8 entry or part of it) above, with V40A counted along it
Sequence of GmolCSP8-L30A (A0A0M4FML8 entry or part of it L45A): as the sequence (A0A0M4FML8 entry or part of it) above, with L30A counted along it
Sequence of GmolCSP8-L80A (A0A0M4FML8 entry or part of it L95A): as the sequence (A0A0M4FML8 entry or part of it) above, with L80A counted along it
Sequence of GmolCSP8-T27A (A0A0M4FML8 entry or part of it T42A): as the sequence (A0A0M4FML8 entry or part of it) above, with T27A counted along it

| SMILES | IC50 (rGmolCSP8; [1]) | Ki (rGmolCSP8; [2]) | also measured |
| --- | --- | --- | --- |
| CCC/C=C/CCCCCCCOC(C)=O [(E)-8-dodecenyl acetate] | > 24 µM | > 24 µM | – |
| C=C/C(C)=C/CCC(=C)C [α-Ocimene] | 18.9 ± 1.29 µM | 17.6 ± 0.81 µM | – |
| O=Cc1ccccc1 [Benzaldehyde] | – | – | IC50 (rGmolCSP8): > 24 µM; Ki (rGmolCSP8): > 24 µM; binding to rGmolCSP8 (in words) (rGmolCSP8): cannot bind |
| CCCCCC(=O)OCC [Ethyl hexanoate] | > 24 µM | > 24 µM | – |
| CCCCOC(C)=O [Butyl acetate] | – | – | IC50 (rGmolCSP8): > 24 µM; Ki (rGmolCSP8): > 24 µM |
| CC/C=C\CCO [Cis-3-hexen-1-ol] | 9.14 ± 0.73 µM | 8.51 ± 0.68 µM | – |
| CCC/C=C\CCCCCCCO [(Z)-8-dodecenyl alcohol] | > 24 µM | > 24 µM | – |
| CCC/C=C\CCCCCCCOC(C)=O [(Z)-8-dodecenyl acetate] | > 24 µM | > 24 µM | – |
| CCC/C=C/C=O [(E)-2-hexenal] | > 24 µM | > 24 µM | binding to rGmolCSP8 (in words) (rGmolCSP8): cannot bind |
| CCCCCO [1-pentanol] | 8.79 ± 0.99 µM | 8.18 ± 0.93 µM | Ki (GmolCSP8-L80A): 6.66 ± 0.64 µM; IC50 (GmolCSP8-T27A): > 24 µM; Ki (GmolCSP8-T27A; read-out: Ki (μM) T27A, mutant T27A, – = did not displace 50% 1-NPN at ligand up to 24 μM): > 24 µM; Ki (GmolCSP8-V40A): 12.4 ± 1.41 µM; binding to mutant L30A (in words) (GmolCSP8-L30A; [3]): lost its ability to bind; Ki (GmolCSP8-L30A; [4]): > 24 µM |
| CCCCCC(=O)OCCCC [Butyl hexanoate] | > 24 µM | > 24 µM | binding to rGmolCSP8 (in words) (rGmolCSP8): cannot bind |
| CCCCCCCCCCO [1-decanol] | 7.16 ± 0.58 µM | 6.6 ± 0.54 µM | Ki (GmolCSP8-L80A): 6.32 ± 0.65 µM; Ki (GmolCSP8-T27A): 12.7 ± 1.79 µM; fold decrease in binding vs wild-type (GmolCSP8-T27A): 1.5- to 2.0 fold; Ki (GmolCSP8-V40A): 7.02 ± 0.47 µM; binding to mutant L30A (in words) (GmolCSP8-L30A; [3]): lost its ability to bind; Ki (GmolCSP8-L30A; [4]): > 24 µM |
| CCCCCCCCCCCCCC [Tetradecane] | > 24 µM | > 24 µM | – |
| COC(=O)c1ccccc1O [Methyl salicylate] | > 24 µM | > 24 µM | – |
| CCCCCCCCCCCCCCCCCC [Octadecane] | > 24 µM | > 24 µM | – |
| CCCCOC(=O)CCC [Butyl butyrate] | > 24 µM | > 24 µM | – |
| CC1=CCC2CC1C2(C)C (stereo not drawn) [α-Pinene] | > 24 µM | > 24 µM | binding to rGmolCSP8 (in words) (rGmolCSP8): cannot bind |
| CCCCCCCCCCCCCCC [Pentadecane] | > 24 µM | > 24 µM | – |

| SMILES | IC50 (rGmolCSP8; [1]) | Ki (rGmolCSP8; [2]) | also measured |
| --- | --- | --- | --- |
| CCCCCCCC=O [Octanal] | > 24 µM | > 24 µM | – |
| CCCC(=O)OCC [Ethyl butyrate] | > 24 µM | > 24 µM | – |
| CC/C=C\CCOC(C)=O [Cis-3-hexenyl acetate] | > 24 µM | > 24 µM | binding to rGmolCSP8 (in words) (rGmolCSP8): cannot bind |
| CC(C)CCO [3-methyl-1-butanol] | 6.6 ± 0.45 µM | 6.32 ± 0.52 µM | – |
| CCCCO [1-butanol] | 7.32 ± 0.56 µM | 6.65 ± 0.52 µM | Ki (GmolCSP8-L80A; mutant L80A, read-out: Ki (μM) L80A): 6.75 ± 0.57 µM; IC50 (GmolCSP8-T27A; mutant T27A, ligands up to 24 μM, read-out: ligand concentration displacing 50% 1-NPN from CSP8-T27A/1-NPN complex): > 24 µM; Ki (GmolCSP8-T27A; mutant T27A, – = did not displace 50% 1-NPN at ligand up to 24 μM, read-out: Ki (μM) T27A): > 24 µM; Ki (GmolCSP8-V40A; mutant V40A, read-out: Ki (μM) V40A): 8.07 ± 0.61 µM; Ki (GmolCSP8-L30A; mutant L30A; – = lost ability to bind; read-out: Ki (μM) L30A): 17.1 ± 1.05 µM; Ki (rGmolCSP8; Table 3, wild-type rGmolCSP8, read-out: Ki (μM) Wild-Type): 6.65 ± 0.52 µM |
| CCCCCCC(=O)OCC [Ethyl heptanoate] | > 24 µM | > 24 µM | – |
| CC/C=C\CC1C(=O)CCC1CC(=O)OC (stereo not drawn) [Methyl jasmonate] | > 24 µM | > 24 µM | – |
| CCCCCCCCCCCCCCCC [Hexadecane] | > 24 µM | > 24 µM | – |
| CCCCCCC=O [Heptanal] | > 24 µM | > 24 µM | binding to rGmolCSP8 (in words) (rGmolCSP8): cannot bind |
| CCCCCC=O [Hexanal] | > 24 µM | > 24 µM | binding to rGmolCSP8 (in words) (rGmolCSP8): cannot bind |
| CCCCCCCO [1-heptanol] | 6.79 ± 0.56 µM | 6.2 ± 0.42 µM | Ki (GmolCSP8-L80A): 6.02 ± 0.66 µM; Ki (GmolCSP8-T27A): 9.01 ± 0.9 µM; fold decrease in binding vs wild-type (GmolCSP8-T27A): 1.5- to 2.0 fold; Ki (GmolCSP8-V40A): 9.68 ± 0.75 µM; binding to mutant L30A (in words) (GmolCSP8-L30A; [3]): lost its ability to bind; Ki (GmolCSP8-L30A; [4]): > 24 µM |
| CCCCCCCCC=O [Nonanal] | > 24 µM | > 24 µM | – |
| CCCCCCCCCC=O [Decanal] | > 24 µM | > 24 µM | – |
| CCCCCCCCCC [Decane] | > 24 µM | > 24 µM | – |
| CCCCCCOC(C)=O [Hexyl acetate] | > 24 µM | > 24 µM | – |
| CCCCCCCCCCCCCCO [1-tetradecanol] | – | – | IC50 (rGmolCSP8): > 24 µM; Ki (rGmolCSP8): > 24 µM; binding to rGmolCSP8 (in words) (rGmolCSP8): unable to bind |
| CC(=O)OCCC(C)C [Isoamyl acetate] | > 24 µM | > 24 µM | – |
| N#Cc1ccccc1 [Benzonitrile] | > 24 µM | > 24 µM | binding to rGmolCSP8 (in words) (rGmolCSP8): cannot bind |
